Where two headings read alike, the source gives them in different places. Starred links: 1 amine or outer side, 2 acyl side, 3 side chain; linkers in the order of their positions; H or OH if unused. Non-standard residues stand in square brackets, D forms with d. Residues, ends and D or L forms follow the SMILES beside them. Groups on a side chain read outwards from the residue. *: point of attachment. C20 diacid = O=C(O)CCCCCCCCCCCCCCCCCCC(=O)*; C18 diacid = O=C(O)CCCCCCCCCCCCCCCCC(=O)*; C16 diacid = O=C(O)CCCCCCCCCCCCCCC(=O)*; γGlu = O=C(O)[C@H](CCC(=O)[*:2])N[*:1]; εLys = N[C@@H](CCCCN[*:1])C(=O)[*:2]; AEEA = NCCOCCOCC(=O)O; Aib = CC(C)(N)C(=O)O
Key:
human GIP receptor = biological target: T1, human GIP receptor (Homo sapiens, UniProt P48546); assay: In vitro functional potency, CRE luciferase reporter, whole BHK cells (hGIPR); format: cell-based; conditions: BHK CRE luc2P hGIPR cells
T1 construct: expressed in transfected cells; host or cells: BHK (parent line BHKTS13), clone BHK CRE luc2P hGIPR
T1 sequence (P48546 22-466): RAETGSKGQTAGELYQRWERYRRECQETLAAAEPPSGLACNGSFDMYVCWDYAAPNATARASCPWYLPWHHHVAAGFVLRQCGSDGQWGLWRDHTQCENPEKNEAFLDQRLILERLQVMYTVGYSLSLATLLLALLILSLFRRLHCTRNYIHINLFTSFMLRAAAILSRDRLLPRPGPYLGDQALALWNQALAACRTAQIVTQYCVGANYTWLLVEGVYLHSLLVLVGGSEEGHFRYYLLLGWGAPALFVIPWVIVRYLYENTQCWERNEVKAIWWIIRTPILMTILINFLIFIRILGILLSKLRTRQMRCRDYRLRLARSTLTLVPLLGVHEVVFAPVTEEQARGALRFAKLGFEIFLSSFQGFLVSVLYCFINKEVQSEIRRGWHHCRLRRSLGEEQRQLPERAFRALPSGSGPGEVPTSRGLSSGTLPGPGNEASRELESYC
Experimental: (§1) The in vitro functional potency is the measure of target receptor activation in a whole cell assay.
(§2) In vitro functional potency was determined by measuring the response of the target receptor in a reporter gene assay in individual cell lines. […] When the respective receptor is activated, it results in the production of cAMP, which in turn results in expression of the luciferase protein. When assay incubation is completed, luciferase substrate (luciferin) is added resulting in the enzymatic conversion of luciferin to oxyluciferin and producing bioluminescence. The luminescence is measured as the readout for the assay.
(§3) The cells lines used in these assays were BHK cells with BHKTS13 as a parent cell line. The cell lines were derived from a clone containing the CRE luciferase element and were established by further transfection with the respective human receptor to obtain the relevant cell line: BHK CRE luc2P hGLP-1R or BHK CRE luc2P hGIPR. The cells were cultured at 37° C. with 5% CO2 in Cell Culture Medium. They were aliquoted and stored in liquid nitrogen. The cells were kept in continuous culture and were seeded out the day before each assay.
(§4) GLP-1R Cell Culture Medium consisted of DMEM medium with 10% FBS, 500 µg/mL G418, and 300 µg/mL hygromycin. GIPR Cell Culture Medium consisted of DMEM medium with 10% FBS, 400 µg/mL G418, and 300 µg/mL hygromycin. Assay Buffer consisted of DMEM w/o phenol red, 10 mM Hepes, 1× Glutamax. 1% ovalbumin, and 0.1% Pluronic F-68 with the addition of HSA at twice the final assay concentration.
(§5) 1) Cells were plated at 5000 cells/well and incubated overnight in the assay plate. 2) Cells were washed once in DPBS. 3) Stocks of the test compounds and reference compounds in concentrations ranging from […] were diluted 1:150 in Assay Buffer. Compounds were then diluted 1:10 in column 1 of a 96 deep well dilution plate and then carried across the row creating a 3.5 fold, 12 point dilution curve. 4) Assay Buffer (50 μl aliquot) with or without HSA was added to each well in the assay plate. 5) A 50 μl aliquot of compound or blank was transferred from the dilution plate to the assay plate containing the Assay Buffer with or without HSA. 6) The assay plate was incubated for 3 h in a 5% CO2 incubator at 37° C. 7) The cells were washed once with DPBS. 8) A 100 μl aliquot of DPBS was added to each well of the assay plate. 9) A 100 μl aliquot of steadylite plus reagent (light sensitive) was added to each well of the assay plate. 10) Each assay plate was covered with aluminum foil to protect it from light and shaken at 250 RPM for 30 min at room temperature. 11) Each assay plate was read in a microtiter plate reader.
(§6) The data from the microtiter plate reader was first regressed in an Excel in order to calculate the x-axis, log scale concentrations based on the individual test compound's stock concentration and the dilutions of the assay. […] The software performs a non-linear regression (log(agonist) vs response). A minimum of two replicates was measured for each sample. The reported values are averages of the replicates.

human GLP-1 receptor = human GLP-1 receptor (Homo sapiens, UniProt P43220); assay: In vitro functional potency, CRE luciferase reporter, whole BHK cells (hGLP-1R); format: cell-based; design: expressed in transfected cells; host or cells: BHK (parent line BHKTS13), clone BHK CRE luc2P hGLP-1R; conditions: BHK CRE luc2P hGLP-1R cells
human GLP-1 receptor, sequence (P43220 24-463): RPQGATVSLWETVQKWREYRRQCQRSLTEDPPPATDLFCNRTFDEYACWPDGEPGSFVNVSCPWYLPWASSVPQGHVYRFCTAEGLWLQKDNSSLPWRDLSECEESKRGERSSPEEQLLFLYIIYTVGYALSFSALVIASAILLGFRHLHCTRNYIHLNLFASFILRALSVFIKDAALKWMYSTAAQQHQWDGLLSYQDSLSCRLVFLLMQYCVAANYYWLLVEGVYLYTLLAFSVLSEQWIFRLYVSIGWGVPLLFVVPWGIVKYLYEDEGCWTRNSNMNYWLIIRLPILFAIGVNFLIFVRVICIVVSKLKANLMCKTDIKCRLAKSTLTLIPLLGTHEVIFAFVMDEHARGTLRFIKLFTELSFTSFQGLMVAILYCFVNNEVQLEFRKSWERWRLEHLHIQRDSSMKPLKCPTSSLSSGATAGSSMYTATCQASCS
Experimental: as §1, §2, §3, §4, §5, §6

[1] = 0% HSA, read-out: hGIPR, CRE Luc 0% HSA EC50
[2] = hGIPR, CRE Luc 1% HSA EC50, 1% HSA
[3] = 0% HSA, read-out: hGLP-1R, CRE Luc 0% HSA EC50
[4] = hGLP-1R, CRE Luc 1% HSA EC50, 1% HSA

Compound	EC50 (human GIP receptor; [1]) [pM]	EC50 (human GIP receptor; [2]) [pM]	EC50 (human GLP-1 receptor; [3]) [pM]	EC50 (human GLP-1 receptor; [4]) [pM]
CC[C@H](C)[C@H](NC(=O)[C@H](Cc1ccccc1)NC(=O)[C@H](CCC(=O)O)NC(=O)[C@H](CCCNC(=N)N)NC(=O)[C@H](C)NC(=O)[C@H](C)NC(=O)[C@H](CCC(N)=O)NC(=O)[C@H](CCCCNC(=O)[C@@H](N)CCCCNC(=O)[C@@H](N)CCCCNC(=O)CC[C@H](NC(=O)CCCCCCCCCCCCCCCCC(=O)O)C(=O)O)NC(=O)[C@H](CCC(=O)O)NC(=O)[C@H](CC(C)C)NC(=O)[C@H](Cc1ccc(O)cc1)NC(=O)[C@@H](NC(=O)[C@H](CO)NC(=O)[C@H](Cc1ccc(O)cc1)NC(=O)[C@H](CC(=O)O)NC(=O)[C@H](CO)NC(=O)[C@@H](NC(=O)[C@H](Cc1ccccc1)NC(=O)[C@@H](NC(=O)CNC(=O)[C@H](CCC(=O)O)NC(=O)[C@H](C)NC(=O)[C@@H](N)Cc1ccc(O)cc1)[C@@H](C)O)[C@@H](C)O)[C@@H](C)CC)C(=O)N[C@@H](CC(N)=O)C(=O)N[C@@H](Cc1c[nH]c2ccccc12)C(=O)N[C@@H](CC(C)C)C(=O)N[C@@H](CC(C)C)C(=O)N[C@@H](C)C(=O)NCC(=O)NCC(=O)N1CCC[C@H]1C(=O)N[C@@H](CO)C(=O)N[C@@H](CO)C(=O)NCC(=O)N[C@@H](C)C(=O)N1CCC[C@H]1C(=O)N1CCC[C@H]1C(=O)N1CCC[C@H]1C(=O)N[C@@H](CO)C(=O)O [Compound 17] (H-YAEGTFTSDYSIYLEK([εLys-εLys-γGlu-C18 diacid])QAAREFINWLLAGGPSSGAPPPS-OH)	34.9	1320	5.2	257
CC[C@H](C)[C@H](NC(=O)[C@H](Cc1ccccc1)NC(=O)[C@H](CCC(=O)O)NC(=O)[C@H](CCCNC(=N)N)NC(=O)[C@H](C)NC(=O)[C@H](C)NC(=O)[C@H](CCC(N)=O)NC(=O)[C@H](CCC(=O)O)NC(=O)[C@H](CCC(=O)O)NC(=O)[C@H](CC(C)C)NC(=O)[C@H](CC(C)C)NC(=O)[C@@H](NC(=O)[C@H](CO)NC(=O)[C@H](Cc1ccc(O)cc1)NC(=O)[C@H](CC(=O)O)NC(=O)[C@H](CO)NC(=O)[C@@H](NC(=O)[C@H](Cc1ccccc1)NC(=O)[C@@H](NC(=O)CNC(=O)[C@H](CCC(=O)O)NC(=O)C(C)(C)NC(=O)[C@@H](N)Cc1ccc(O)cc1)[C@@H](C)O)[C@@H](C)O)[C@@H](C)CC)C(=O)N[C@@H](CCC(=O)O)C(=O)N[C@@H](Cc1c[nH]c2ccccc12)C(=O)N[C@@H](CC(C)C)C(=O)N[C@@H](CC(C)C)C(=O)N[C@@H](C)C(=O)NCC(=O)NCC(=O)N1CCC[C@H]1C(=O)N[C@@H](CO)C(=O)N[C@@H](CCCCNC(=O)COCCOCCNC(=O)COCCOCCNC(=O)CC[C@H](NC(=O)CCCCCCCCCCCCCCC(=O)O)C(=O)O)C(=O)NCC(=O)N[C@@H](C)C(=O)N1CCC[C@H]1C(=O)N1CCC[C@H]1C(=O)N1CCC[C@H]1C(=O)N[C@@H](CO)C(=O)O [Compound 47] (H-Y[Aib]EGTFTSDYSILLEEQAAREFIEWLLAGGPSK([AEEA-AEEA-γGlu-C16 diacid])GAPPPS-OH)	3.1	156	2.1	154
CC[C@H](C)[C@H](NC(=O)[C@H](CO)NC(=O)[C@H](Cc1ccc(O)cc1)NC(=O)[C@H](CC(=O)O)NC(=O)[C@H](CO)NC(=O)[C@@H](NC(=O)[C@H](Cc1ccccc1)NC(=O)[C@@H](NC(=O)CNC(=O)[C@H](CCC(=O)O)NC(=O)C(C)(C)NC(=O)[C@@H](N)Cc1ccc(O)cc1)[C@@H](C)O)[C@@H](C)O)C(=O)N[C@@H](Cc1ccc(O)cc1)C(=O)N[C@@H](CC(C)C)C(=O)N[C@@H](CCC(=O)O)C(=O)N[C@@H](CCCCNC(=O)[C@@H](N)CCCCNC(=O)[C@@H](N)CCCCNC(=O)CC[C@H](NC(=O)CCCCCCCCCCCCCCCCCCC(=O)O)C(=O)O)C(=O)N[C@@H](CCC(N)=O)C(=O)N[C@@H](C)C(=O)N[C@@H](C)C(=O)N[C@@H](CCC(N)=O)C(=O)N[C@@H](CCC(=O)O)C(=O)N[C@@H](Cc1ccccc1)C(=O)N[C@H](C(=O)N[C@@H](CC(N)=O)C(=O)N[C@@H](Cc1c[nH]c2ccccc12)C(=O)N[C@@H](CC(C)C)C(=O)N[C@@H](CC(C)C)C(=O)N[C@@H](C)C(=O)NCC(=O)NCC(=O)N1CCC[C@H]1C(=O)N[C@@H](CO)C(=O)N[C@@H](CO)C(=O)NCC(=O)N[C@@H](C)C(=O)N1CCC[C@H]1C(=O)N1CCC[C@H]1C(=O)N1CCC[C@H]1C(=O)N[C@@H](CO)C(N)=O)C(C)C [Compound 1] (H-Y[Aib]EGTFTSDYSIYLEK([εLys-εLys-γGlu-C20 diacid])QAAQEFVNWLLAGGPSSGAPPPS-NH2)	2.8	173	7.8	1660
CC[C@H](C)[C@H](NC(=O)[C@H](Cc1ccccc1)NC(=O)[C@H](CCC(=O)O)NC(=O)[C@H](CCCNC(=N)N)NC(=O)[C@H](C)NC(=O)[C@H](C)NC(=O)[C@H](CCC(N)=O)NC(=O)[C@H](CCCCNC(=O)COCCOCCNC(=O)COCCOCCNC(=O)CC[C@H](NC(=O)CCCCCCCCCCCCCCCCC(=O)O)C(=O)O)NC(=O)[C@H](CCC(=O)O)NC(=O)[C@H](CC(C)C)NC(=O)[C@H](CC(C)C)NC(=O)[C@@H](NC(=O)[C@H](CO)NC(=O)[C@H](Cc1ccc(O)cc1)NC(=O)[C@H](CC(=O)O)NC(=O)[C@H](CO)NC(=O)[C@@H](NC(=O)[C@H](Cc1ccccc1)NC(=O)[C@@H](NC(=O)CNC(=O)[C@H](CCC(=O)O)NC(=O)C(C)(C)NC(=O)[C@@H](N)Cc1ccc(O)cc1)[C@@H](C)O)[C@@H](C)O)[C@@H](C)CC)C(=O)N[C@@H](CC(N)=O)C(=O)N[C@@H](Cc1c[nH]c2ccccc12)C(=O)N[C@@H](CC(C)C)C(=O)N[C@@H](CC(C)C)C(=O)N[C@@H](C)C(=O)NCC(=O)NCC(=O)N1CCC[C@H]1C(=O)N[C@@H](CO)C(=O)N[C@@H](CO)C(=O)NCC(=O)N[C@@H](C)C(=O)N1CCC[C@H]1C(=O)N1CCC[C@H]1C(=O)N1CCC[C@H]1C(=O)N[C@@H](CO)C(=O)O [Compound 35] (H-Y[Aib]EGTFTSDYSILLEK([AEEA-AEEA-γGlu-C18 diacid])QAAREFINWLLAGGPSSGAPPPS-OH)	5.2	303	3	413

Reference: patent US20220177538A1, “CO-AGONISTS AT GLP-1 AND GIP RECEPTORS SUITABLE FOR ORAL DELIVERY” (Novo Nordisk A/S, priority 2020, published 2022)
